The source made the active and inactive calls. No cut-off for these calls is given here.
Key:
[1] = tested on: MDA-MB-231; assay: Antiproliferative activity against human MDA-MB-231 cells assessed as inhibition of cell growth measured after 72 hrs by WST-8 method; format: functional, cell-based; conditions: MDA-MB-231, 72 h
[2] = tested on: A549; assay: Antiproliferative activity against human A549 cells assessed as inhibition of cell growth measured after 72 hrs by WST-8 method; format: functional, cell-based; conditions: A549, 72 h
[3] = biological target: Signal transducer and activator of transcription 3 (Homo sapiens) (UniProt P40763); assay: Inhibition of STAT3 phosphorylation in human A549 cells assessed as decrease in IL-6 stimulated STAT3 phosphorylation at 0.5 to 3 uM preincubated for 1 hr followed by IL-6 stimulation and measured after 1 hrs by Western blot analysis; format: cell-based; conditions: dose 0.5-3 µM, time 2.0 hrs
Signal transducer and activator of transcription 3 (Homo sapiens), sequence (P40763 whole entry): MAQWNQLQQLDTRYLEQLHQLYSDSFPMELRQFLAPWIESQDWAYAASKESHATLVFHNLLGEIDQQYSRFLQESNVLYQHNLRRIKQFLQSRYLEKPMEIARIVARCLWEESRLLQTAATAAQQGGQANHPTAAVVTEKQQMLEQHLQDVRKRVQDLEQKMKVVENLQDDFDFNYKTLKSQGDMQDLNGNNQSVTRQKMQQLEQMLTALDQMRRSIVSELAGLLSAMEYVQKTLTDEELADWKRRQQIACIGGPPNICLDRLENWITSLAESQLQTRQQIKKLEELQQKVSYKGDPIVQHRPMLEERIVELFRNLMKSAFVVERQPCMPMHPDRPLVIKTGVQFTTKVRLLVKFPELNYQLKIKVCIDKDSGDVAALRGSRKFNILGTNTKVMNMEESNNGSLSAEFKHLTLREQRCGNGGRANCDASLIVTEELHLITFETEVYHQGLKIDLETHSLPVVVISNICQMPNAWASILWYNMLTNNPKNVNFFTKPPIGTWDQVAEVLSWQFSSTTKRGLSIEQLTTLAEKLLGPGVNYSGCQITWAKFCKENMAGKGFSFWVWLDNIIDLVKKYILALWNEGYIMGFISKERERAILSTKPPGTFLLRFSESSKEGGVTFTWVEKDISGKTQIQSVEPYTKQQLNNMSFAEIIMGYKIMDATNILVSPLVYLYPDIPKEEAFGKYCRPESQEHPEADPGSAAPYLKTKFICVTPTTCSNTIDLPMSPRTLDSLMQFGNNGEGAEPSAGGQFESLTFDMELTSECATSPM

[4] = biological target: Signal transducer and activator of transcription 3 (Homo sapiens) (UniProt P40763); assay: Inhibition of IL-6 stimulated STAT3 phosphorylation in human A549 cells at <0.1 uM preincubated for 1 hr followed by IL-6 stimulation and measured after 1 hrs by Western blot analysis relative to control; format: cell-based; conditions: time 2.0 hrs
[5] = biological target: Signal transducer and activator of transcription 3 (Homo sapiens) (UniProt P40763); assay: Inhibition of IL-6 stimulated STAT3 phosphorylation in human A549 cells at 10 uM preincubated for 1 hr followed by IL-6 stimulation and measured after 1 hrs by Western blot analysis; format: cell-based; conditions: time 2.0 hrs
[6] = tested on: A549; assay: Antiproliferative activity against human A549 cells measured after 24 hrs by MTT assay; format: functional, cell-based; conditions: A549, 24 h

| SMILES | IC50 [1] [nM] | IC50 [2] [nM] | inhibition [3] | inhibition [4] [%] | inhibition [5] | IC50 [6] [nM] |
| --- | --- | --- | --- | --- | --- | --- |
| CC(O)c1cc2c(o1)C(=O)c1ccc(S(N)(=O)=O)cc1C2=O (configuration not stated) | 310 | 490 | – | – | – | – |
| CC(=O)c1cc2c(o1)-c1ccccc1C(=O)C2=O | 1500 | 1700 | Active | – | – | – |
| C[C@H](O)c1cc2c(o1)-c1cccc(O)c1C(=O)C2=O | 2400 | 390 | Active | 100 | – | – |
| CC1(C)CCC2=C(O1)c1cccc(O)c1C(=O)C2=O | 1400 | 630 | – | – | inactive | – |
| CC(O)c1cc2c(o1)C(=O)c1cccc3c1C2=NS3(=O)=O (configuration not stated) | 49 | 34 | Active | 100 | – | – |
| C[C@H](O)c1cc2c(o1)C(=O)c1cccc(O)c1C2=O | 350 | 160 | – | – | – | – |
| CC(O)c1cc2c(o1)C(=O)c1cccc(S(=O)(=O)N(C)C)c1C2=O (configuration not stated) | 770 | 1200 | Active | – | – | – |
| CC(=O)c1cc2c(o1)C(=O)c1ccc(S(N)(=O)=O)cc1C2=O | 110 | 140 | – | – | – | – |
| O=C1C(Nc2ccccc2N2CCNCC2)=CC2=NS(=O)(=O)c3cccc1c32 | – | – | – | – | – | ≤ 4660 |
| CC(=O)c1cc2c(o1)-c1cccc(O)c1C(=O)C2=O | 1400 | 620 | Active | 100 | – | – |
| CC(=O)c1cc2c(o1)C(=O)c1cccc3c1C2=NS3(=O)=O | 89 | 54 | Active | 100 | – | – |

Reference: ChEMBL document CHEMBL5321259, “Synthesis and structure-activity relationship studies of naphthoquinones as STAT3 inhibitors” (Bioorg Med Chem, 2023)
